The results in this text go back to patent US9861616B2, “Methods for treating respiratory diseases and formulations therefor” (priority 2013, dated 2018).

In test [1] the test system is MRSA strains from CF patients. As to the kind of experiment: Microdilution MICs against 40 MRSA strains from CF patients. Type of test: cell-based, S. aureus. As for the experimental part:
(§1) Two strains each of mucoid P. aeruginosa (both pyocyanin positive) and […] MRSA (only one strain with gold colonies) isolated from patients at a CF clinic were tested. Additionally, 2 B. cepacia strains were acquired, from Hershey Medical Center. All strains were identified by standard methods. Only one strain per patient was tested. MLVA was done on all strains to examine clonality, and confirmed that examination is not taking place on only one or a few clones. Strains will be stored in skim milk at −70° C. until use.
(§2) Original MICs of each strain to CEM-101 and other comparators were tested by CLSI microdilution methodology. Trays were obtained from Trek, Inc., Cleveland, Ohio. Time-kill macrobroth MIC dilution by CLSI was performed for all synergy testing.

Test [2] has as its system MRSA SA 2230, SA 2232. The test can be described thus: Time-kill macrobroth MICs. It is filed as cell-based, S. aureus. Here is the method:
as §2
(§3) Two of the MRSA strains were chosen and tested for synergy, together with the 4 Gram-negative strains mentioned above. Broth macrodilution formed the basis of MICs used in time-kill experiments, as detailed below. The kill kinetics of each drug was tested alone by incubating an initial inoculum of 5×10^5 to 5×10^6 cfu/mL with drug concentrations at the MIC, three dilutions above and three dilutions below the MIC (½, ¼ and ⅛×MIC). Viability counts were performed after 0, 3, 6, 12 and 24 h incubation at 37° C. in a shaking water bath by plating onto trypticase soy-5% sheep blood agar plates.

Test [3] concerns B. cepacia BCEP 953, BCEP 954. The test can be described thus: Time-kill macrobroth MICs. It is filed as cell-based. As for the experimental part:
as §2, §3

Test [4] has as its system P. aeruginosa PSAR 461, PSAR 468. As to the kind of experiment: Time-kill macrobroth MICs. It is filed as cell-based. As for the experimental part:
as §2, §3

For test [5], the system named is B. cepacia strains from cystic fibrosis patients. As to the kind of experiment: Macrobroth dilution MICs, CF strains. It is filed as cell-based. The following applies: 2 B. cepacia strains from cystic fibrosis patients. Here is the method:
as §1, §2
On the technique in general: Dilution methods test growth across graded concentrations, often in twofold steps.

In test [6] the test system is P. aeruginosa strains from cystic fibrosis patients. As to the kind of experiment: Macrobroth dilution MICs, CF strains. Type of test: cell-based. The following applies: 2 P. aeruginosa strains from cystic fibrosis patients. Here is the method: as §1, §2
The mark [7] stands for this setting: 40 MRSA strains from CF patients.
Setting [8] is: Staphylococcus aureus, 40 MRSA strains from CF patients, read-out: MIC50.
[9] abbreviates: Staphylococcus aureus, 40 MRSA strains from CF patients, read-out: MIC90.

Read-outs that look alike come from different tables or passages of the source. Bounds are passed on as bounds.

For the molecule `CN(C)c1cc(NC(=O)CNC(C)(C)C)c(O)c2c1C[C@H]1C[C@H]3[C@H](N(C)C)C(O)=C(C(N)=O)C(=O)[C@@]3(O)C(O)=C1C2=O` [Tigecycline], the “MIC Range” value in test [1] (setting [7]) lay within 0.12 to 0.25 µg/mL. Moreover, in test [1] (Staphylococcus aureus, MRSA), the MIC50 (usually the lowest concentration that inhibits either 50% of growth or 50% of the strains tested, depending on the study) was found to be 0.12 µg/mL and the MIC90 (usually the lowest concentration that inhibits either 90% of growth or 90% of the strains tested, depending on the study) stood at 0.25 µg/mL.
On to `NC[C@H]1O[C@H](O[C@H]2[C@H](O)[C@@H](O[C@H]3O[C@H](CO)[C@@H](O)[C@H](N)[C@H]3O)[C@H](N)C[C@@H]2N)[C@H](N)C[C@@H]1O` [Tobramycin], for which the “Time-kill Macrobroth MIC” value in test [2] (strain SA 2230) is 4.0 µg/mL; in test [2] (strain SA 2232), above 512 µg/mL; in test [3] (strain BCEP 953) it was 128 µg/mL; in test [3] (strain BCEP 954), 128 µg/mL; in test [4] (strain PSAR 461), 2.0 µg/mL; in test [4] (strain PSAR 468) it was 1.0 µg/mL. Moreover, the entries for the “MIC Range” value in test [5] and in test [6] were 128 µg/mL and 0.25 to 1.0 µg/mL, respectively.
Regarding `CC(=O)NC[C@H]1CN(c2ccc(N3CCOCC3)c(F)c2)C(=O)O1` [Linezolid], the “MIC Range” value in test [1] (setting [7]) was 1 to 4 µg/mL. Further, the MIC50 in test [1] (setting [8]) amounted to 2 µg/mL. For the same molecule, in test [1] (setting [9]), the MIC90 came to 2 µg/mL.
Regarding `CCCCCCCCCC(=O)N[C@@H](Cc1c[nH]c2ccccc12)C(=O)N[C@H](CC(N)=O)C(=O)N[C@@H](CC(=O)O)C(=O)N[C@@H]1C(=O)NCC(=O)N[C@@H](CCCN)C(=O)N[C@@H](CC(=O)O)C(=O)N[C@H](C)C(=O)N[C@@H](CC(=O)O)C(=O)NCC(=O)N[C@H](CO)C(=O)N[C@@H]([C@H](C)CC(=O)O)C(=O)N[C@@H](CC(=O)c2ccccc2N)C(=O)O[C@@H]1C` [Daptomycin], the “MIC Range” value in test [1] (setting [7]) is recorded as 0.5-1^ μg/mL. Also, the MIC50 in test [1] (setting [8]) came to 0.5 µg/mL. Further, the MIC90 in test [1] (setting [9]) turned out to be 1 µg/mL.
For the molecule `CN[C@H](CC(C)C)C(=O)N[C@H]1C(=O)N[C@@H](CC(N)=O)C(=O)N[C@H]2C(=O)N[C@H]3C(=O)N[C@H](C(=O)N[C@H](C(=O)O)c4cc(O)cc(O)c4-c4cc3ccc4O)[C@H](O)c3ccc(c(Cl)c3)Oc3cc2cc(c3O[C@@H]2O[C@H](CO)[C@@H](O)[C@H](O)[C@H]2O[C@H]2C[C@](C)(N)[C@H](O)[C@H](C)O2)Oc2ccc(cc2Cl)[C@H]1O` [Vancomycin], the “MIC Range” value in test [1] (setting [7]) is 0.5-1^ μg/mL. For the same molecule, in test [1] (Staphylococcus aureus, MRSA), the MIC50 stood at 0.5 µg/mL and the MIC90 was 1 µg/mL.
For the molecule `NCC[C@H](O)C(=O)N[C@@H]1C[C@H](N)[C@@H](O[C@H]2O[C@H](CN)[C@@H](O)[C@H](O)[C@H]2O)[C@H](O)[C@H]1O[C@H]1O[C@H](CO)[C@@H](O)[C@H](N)[C@H]1O` [Amikacin], the “Time-kill Macrobroth MIC” value in test [2] (strain SA 2230) is 32.0 µg/mL; in test [2] (strain SA 2232), 64.0 µg/mL; in test [3] (strain BCEP 953) it was 512 µg/mL; in test [3] (strain BCEP 954), 256 µg/mL; in test [4] (strain PSAR 461), 8.0 µg/mL; in test [4] (strain PSAR 468), 4.0 µg/mL. Besides, the “MIC Range” value in test [5] was 256 µg/mL; in test [6], 2 to 8 µg/mL.
Take Teicoplanin: in test [1] (setting [7]), the MIC50 was 0.5 µg/mL, the MIC90 came out at 1 µg/mL and the “MIC Range” value was in the range of 0.25 to 1 µg/mL.
